Where no end group is shown, it is not given here.
What was measured:
HLA A2902 = HLA A2902 (Homo sapiens, UniProt P04439, A270S/D101N/D185E/E176V/E277Q/E87Q/F33T/G231S/H175R/I121M/I218V/I322F/K168Q/L300P/L318F/M331R/P208A/P217A/Q86L/T323A/T345S/V100A/V358M); test: HLA class I competition binding assay using soluble HLA
HLA A2601 = HLA A2601 (Homo sapiens, UniProt P04439, A114D/A173T/A270S/D101N/D185E/E277Q/E87N/F33Y/G231S/I121R/I218V/K168Q/L180W/L300P/L318F/P208A/P217A/Q86R/Q94H/R138Q/S129P/T187R/T323A/T345S/V100A/V358M); test: as above
HLA A0101 = HLA A0101 (Homo sapiens, UniProt P04439, A114D/A174V/A182V/D101N/D185E/E176A/E190D/L180R/Q94H/R68K/S129P/T187R/V100A/V91M/W191G); test: as above
HLA A3002 = HLA A3002 (Homo sapiens, UniProt P04439, D101N/D140H/D185E/E176R/F33S/G80R/H175R/K168Q/Q94H/R138E/R41S/V100E); test: as above
HLA A0201 = HLA A0201 (Homo sapiens, UniProt P04439, D140Y/D185E/D98H/E176V/E277Q/G131W/G231S/I119V/I121R/I166T/I218V/L300P/L318F/N151K/N90K/P208A/P217A/Q86G/Q94H/R138H/R169H/T345S); test: as above
HLA A0203 = HLA A0203 (Homo sapiens, UniProt P04439, A173T/D140Y/D185E/D98H/E277Q/G131W/G231S/I119V/I121R/I166T/I218V/L180W/L300P/L318F/N151K/N90K/P208A/P217A/Q86G/Q94H/R138H/R169H/T345S); test: as above
HLA A6802 = HLA A6802 (Homo sapiens, UniProt P04439, A269V/D140Y/D185E/E176V/E277Q/E87N/F33Y/G231S/I121R/I166T/I218V/L180W/L300P/L318F/N151K/P208A/P217A/Q86R/R138H/R169H/S129P/T345S/V36M); test: as above
DRB1*0901 = DRB1*0901 (Homo sapiens, UniProt P01903+P01911, A100R/A103E/D57H/D86V/F55Y/F60I/F76Y/I96F/K127E/L162R/M171V/P40D/Q125H/Q99R/R33Q/R42F/S133A/S66N/T210M/V115G/W38K/Y107V/Y59G/Y89S); test: biochemical
DRB1*0701 (DR7) = DRB1*0701 (DR7) (Homo sapiens, UniProt P01903+P01911, A100R/A102G/A103Q/D57E/D86V/E43K/F76Y/K127E/L162R/M171V/P40G/Q125H/Q99D/R33Q/R42Y/R54Q/S133A/S66F/T210M/V115G/Y107V/Y59L/Y89S); test: biochemical
DRB1*0802 (DR8w2) = DRB1*0802 (DR8w2) (Homo sapiens, UniProt P01903+P01911, A100R/A103L/A169T/F76Y/H45Y/I96F/K41T/L162R/M171V/P40S/Q125H/Q178H/Q39Y/Q99D/R218S/R42G/S66Y/V115G/W38E); test: biochemical
DRB1*1101 (DR5) = DRB1*1101 (DR5) (Homo sapiens, UniProt P01903+P01911, A100R/A169T/A87E/I96F/K41T/L162R/M171V/P40S/Q125H/Q178H/Q39Y/Q99D/R42S/S66Y/T262R/V115G/W38E); test: biochemical
DRB5*0101 (DR2w2beta-2) = DRB5*0101 (DR2w2beta-2) (Homo sapiens, UniProt P01903+Q30154); test: biochemical
DRB1*0101 (DR1) = DRB1*0101 (DR1) (Homo sapiens, UniProt P01903+P01911, A100R/D57E/F55L/F60I/F76Y/I96L/L162R/M171V/P40L/Q125E/R42F/V115G/Y59C); test: biochemical
HLA A0206 = HLA A0206 (Homo sapiens, UniProt P04439, D140Y/D185E/D98H/E176V/E277Q/F33Y/G131W/G231S/I119V/I121R/I166T/I218V/L300P/L318F/N151K/N90K/P208A/P217A/Q86G/Q94H/R138H/R169H/T345S); test: HLA class I competition binding assay using soluble HLA
HLA A0202 = HLA A0202 (Homo sapiens, UniProt P04439, D140Y/D185E/D98H/E176V/E277Q/G131W/G231S/I119L/I121R/I166T/I218V/L180W/L300P/L318F/N151K/N90K/P208A/P217A/Q67R/Q86G/Q94H/R138H/R169H/T345S); test: as above

C[C@@H](O)[C@H](NC(=O)CN)C(=O)NCC(=O)N[C@@H](CS)C(=O)N[C@@H](CC(N)=O)C(=O)NCC(=O)N[C@@H](Cc1c[nH]c2ccccc12)C(=O)N[C@@H](Cc1ccccc1)C(=O)N[C@@H](Cc1ccc(O)cc1)C(=O)O [compound 23]
IC50 (HLA A2902): 116 nM
IC50 (HLA A2601): 3080 nM
IC50 (HLA A0101): 136 nM
IC50 (HLA A3002): 9.1 nM

CC[C@H](C)[C@H](NC(=O)[C@H](CC(=O)O)NC(=O)[C@H](CCC(N)=O)NC(=O)[C@H](CC(C)C)NC(=O)[C@@H](N)CO)C(=O)N[C@@H](CCC(=O)O)C(=O)N[C@H](C(=O)N[C@H](C(=O)N[C@@H](CS)C(=O)N[C@H](C(=O)O)C(C)C)[C@@H](C)O)[C@@H](C)CC [compound 30]
IC50 (HLA A0201): 153 nM
IC50 (HLA A0203): 38 nM
IC50 (HLA A6802): > 20000 nM

CC[C@H](C)[C@H](NC(=O)CNC(=O)[C@@H](NC(=O)[C@H](CCCCN)NC(=O)[C@H](Cc1ccc(O)cc1)NC(=O)[C@H](Cc1c[nH]c2ccccc12)NC(=O)[C@H](Cc1ccc(O)cc1)NC(=O)[C@@H](N)CC(C)C)[C@@H](C)O)C(=O)N[C@@H](CO)C(=O)N[C@@H](CC(N)=O)C(=O)N[C@H](C(=O)N[C@@H](CO)C(=O)N[C@@H](CCC(=O)O)C(=O)N[C@H](C(=O)N[C@@H](Cc1ccc(O)cc1)C(=O)O)C(C)C)[C@@H](C)CC [compound 89]
IC50 (DRB1*0901): 90 nM

CC[C@H](C)[C@H](NC(=O)[C@H](Cc1c[nH]c2ccccc12)NC(=O)[C@H](CCC(=O)O)NC(=O)[C@@H]1CCCN1)C(=O)N[C@@H](CCC(N)=O)C(=O)N[C@@H](CCCNC(=N)N)C(=O)N[C@@H](CCC(N)=O)C(=O)N[C@H](C(=O)N[C@H](C(=O)N[C@@H](CC(C)C)C(=O)N[C@@H](CCC(N)=O)C(=O)N[C@@H](Cc1c[nH]cn1)C(=O)N[C@@H](CO)C(=O)N[C@@H](Cc1ccccc1)C(=O)N[C@@H](CC(N)=O)C(=O)O)C(C)C)[C@@H](C)O [compound 90]
IC50 (DRB1*0701 (DR7)): > 20000 nM

CC[C@H](C)[C@H](N)C(=O)N[C@@H](CCCNC(=N)N)C(=O)N[C@H](C(=O)N[C@@H](CC(C)C)C(=O)N[C@@H](CCC(=O)O)C(=O)N[C@@H](CC(=O)O)C(=O)N[C@@H](CC(C)C)C(=O)N[C@@H](CC(C)C)C(=O)N[C@@H](CCSC)C(=O)NCC(=O)N[C@H](C(=O)N[C@@H](CC(C)C)C(=O)NCC(=O)N[C@H](C(=O)N[C@H](C(=O)O)C(C)C)[C@@H](C)CC)[C@@H](C)O)[C@@H](C)O [compound 97]
IC50 (DRB1*0802 (DR8w2)): > 20000 nM
IC50 (DRB1*0901): > 20000 nM
IC50 (DRB1*1101 (DR5)): > 20000 nM
IC50 (DRB5*0101 (DR2w2beta-2)): > 20000 nM

CC[C@H](C)[C@H](NC(=O)[C@H](Cc1c[nH]cn1)NC(=O)[C@H](C)NC(=O)[C@H](Cc1ccc(O)cc1)NC(=O)[C@H](CC(C)C)NC(=O)[C@@H](NC(=O)[C@H](Cc1ccccc1)NC(=O)[C@@H]1CCCN1C(=O)[C@H](CCC(N)=O)NC(=O)[C@@H](NC(=O)[C@H](CC(C)C)NC(=O)[C@@H](NC(=O)[C@H](CCCCN)NC(=O)[C@@H](N)Cc1ccccc1)[C@@H](C)O)[C@@H](C)CC)[C@@H](C)CC)C(=O)N[C@@H](CCC(N)=O)C(=O)O [compound 98]
IC50 (DRB1*1101 (DR5)): 6690 nM

CC(C)C[C@H](NC(=O)[C@H](CCC(N)=O)NC(=O)[C@H](CCC(N)=O)NC(=O)[C@@H](N)Cc1ccccc1)C(=O)N[C@@H](Cc1ccccc1)C(=O)N[C@@H](CC(C)C)C(=O)N[C@@H](CC(N)=O)C(=O)N[C@H](C(=O)N[C@@H](CC(C)C)C(=O)N[C@@H](CO)C(=O)N[C@@H](Cc1ccccc1)C(=O)N[C@H](C(=O)N[C@@H](CS)C(=O)N1CCC[C@H]1C(=O)N[C@@H](Cc1c[nH]c2ccccc12)C(=O)O)C(C)C)[C@@H](C)O [compound 105]
IC50 (DRB1*0802 (DR8w2)): 9000 nM

CC[C@H](C)[C@H](NC(=O)[C@@H](NC(=O)[C@H](CC(C)C)NC(=O)[C@H](CC(=O)O)NC(=O)[C@@H](NC(=O)[C@H](Cc1ccccc1)NC(=O)[C@H](C)NC(=O)[C@H](Cc1ccccc1)NC(=O)[C@H](CC(=O)O)NC(=O)[C@H](CC(C)C)NC(=O)[C@@H](N)C(C)C)[C@@H](C)O)[C@@H](C)O)C(=O)N[C@H](C(=O)N[C@@H](Cc1ccc(O)cc1)C(=O)N[C@@H](CCCNC(=N)N)C(=O)N[C@@H](CC(=O)O)C(=O)O)C(C)C [compound 111]
IC50 (DRB5*0101 (DR2w2beta-2)): > 20000 nM

CC[C@H](C)[C@H](N)C(=O)N[C@@H](CCCNC(=N)N)C(=O)N[C@H](C(=O)N[C@@H](CC(C)C)C(=O)N[C@@H](CCC(N)=O)C(=O)N[C@@H](CCC(=O)O)C(=O)N[C@@H](CC(C)C)C(=O)N[C@@H](CC(C)C)C(=O)N[C@@H](CCSC)C(=O)NCC(=O)N[C@@H](CO)C(=O)N[C@@H](Cc1ccccc1)C(=O)NCC(=O)N[C@H](C(=O)N[C@H](C(=O)O)C(C)C)[C@@H](C)CC)[C@@H](C)CC [compound 112]
IC50 (DRB1*0101 (DR1)): 50 nM

CC[C@H](C)[C@H](NC(=O)[C@H](Cc1c[nH]cn1)NC(=O)[C@H](C)NC(=O)[C@H](Cc1ccc(O)cc1)NC(=O)[C@H](CC(C)C)NC(=O)[C@@H](NC(=O)[C@H](C)NC(=O)[C@@H]1CCCN1C(=O)[C@H](CCCCN)NC(=O)[C@@H](NC(=O)[C@H](CC(C)C)NC(=O)[C@@H](NC(=O)[C@H](CCCCN)NC(=O)[C@@H](N)Cc1ccccc1)[C@@H](C)O)[C@@H](C)CC)[C@@H](C)O)C(=O)N[C@@H](CCC(N)=O)C(=O)O [compound 115]
IC50 (DRB5*0101 (DR2w2beta-2)): 1000 nM

CC(C)C[C@H](NC(=O)[C@H](CCC(N)=O)NC(=O)[C@H](CCC(N)=O)NC(=O)[C@H](CC(C)C)NC(=O)[C@@H](NC(=O)[C@H](CCCNC(=N)N)NC(=O)[C@@H](N)CC(C)C)[C@@H](C)O)C(=O)N[C@@H](Cc1ccccc1)C(=O)N[C@@H](CC(C)C)C(=O)N[C@@H](CO)C(=O)N[C@H](C(=O)N[C@@H](CC(C)C)C(=O)N[C@@H](CO)C(=O)N[C@@H](Cc1ccccc1)C(=O)N[C@H](C(=O)O)C(C)C)[C@@H](C)O [compound 121]
IC50 (DRB1*1101 (DR5)): 1670 nM

FIYIPLFVI [compound 52]
IC50 (HLA A0201): 26 nM
IC50 (HLA A0203): 47 nM
IC50 (HLA A0206): 8.1 nM
IC50 (HLA A6802): 157 nM

FVYIPLFLI [compound 8]
IC50 (HLA A0201): 206 nM
IC50 (HLA A0203): 63 nM
IC50 (HLA A0202): 323 nM
IC50 (HLA A6802): 251 nM

ISDYRHYCY [compound 5]
IC50 (HLA A0101): 10 nM

QVDYYGLYY [compound 2]
IC50 (HLA A2601): 251 nM
IC50 (HLA A0101): 2.7 nM
IC50 (HLA A3002): 160 nM

STDLRDHIDY [compound 3]
IC50 (HLA A2601): 758 nM
IC50 (HLA A0101): 113 nM

TLHDIILECV [compound 9]
IC50 (HLA A0201): 3.6 nM
IC50 (HLA A0203): 1.9 nM
IC50 (HLA A0202): 0.54 nM
IC50 (HLA A0206): 92 nM
IC50 (HLA A6802): 2950 nM

TVYVFCFLL [compound 29]
IC50 (HLA A0201): 175 nM
IC50 (HLA A0203): 769 nM
IC50 (HLA A0202): 587 nM
IC50 (HLA A0206): 26 nM

From patent publication US8969542B2, “HPV polyepitope constructs and uses thereof” (priority 2007, dated 2015)
